Columns and labels:
adenosine A1 receptor = adenosine A1 receptor (Homo sapiens (Human), UniProt P30542); assay: Adenosine receptor activity assay (Table 1), A1 cAMP; assay type: cell-based
adenosine A3 receptor = adenosine A3 receptor (Homo sapiens (Human), UniProt P0DMS8); assay: Adenosine receptor activity assay (Table 1), A3 cAMP; assay type: cell-based
adenosine A2B receptor = adenosine A2B receptor (Homo sapiens (Human), UniProt P29275); assay: Adenosine receptor activity assay (Table 1), A2B activity; assay type: biochemical; conditions: for Ratio: A2A activity to A2B activity (A2A/A2B); for IC50: read-out: Ave A2B cAMP IC50
adenosine A2B receptor, sequence (P29275 whole entry): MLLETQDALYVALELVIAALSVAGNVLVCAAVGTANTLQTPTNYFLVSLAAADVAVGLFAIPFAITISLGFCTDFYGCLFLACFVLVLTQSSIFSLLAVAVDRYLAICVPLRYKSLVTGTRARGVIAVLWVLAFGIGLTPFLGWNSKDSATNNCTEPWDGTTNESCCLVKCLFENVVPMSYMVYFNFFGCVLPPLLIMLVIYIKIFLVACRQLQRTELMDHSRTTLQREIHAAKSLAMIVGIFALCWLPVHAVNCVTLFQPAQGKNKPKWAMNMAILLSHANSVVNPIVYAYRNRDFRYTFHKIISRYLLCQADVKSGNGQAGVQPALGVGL

adenosine A2A receptor = adenosine A2A receptor (Homo sapiens (Human), UniProt P29274); assay: Adenosine receptor activity assay (Table 1), A2A activity; assay type: biochemical; conditions: read-out: Ave A2A cAMP IC50
adenosine A2A receptor, sequence (P29274 whole entry): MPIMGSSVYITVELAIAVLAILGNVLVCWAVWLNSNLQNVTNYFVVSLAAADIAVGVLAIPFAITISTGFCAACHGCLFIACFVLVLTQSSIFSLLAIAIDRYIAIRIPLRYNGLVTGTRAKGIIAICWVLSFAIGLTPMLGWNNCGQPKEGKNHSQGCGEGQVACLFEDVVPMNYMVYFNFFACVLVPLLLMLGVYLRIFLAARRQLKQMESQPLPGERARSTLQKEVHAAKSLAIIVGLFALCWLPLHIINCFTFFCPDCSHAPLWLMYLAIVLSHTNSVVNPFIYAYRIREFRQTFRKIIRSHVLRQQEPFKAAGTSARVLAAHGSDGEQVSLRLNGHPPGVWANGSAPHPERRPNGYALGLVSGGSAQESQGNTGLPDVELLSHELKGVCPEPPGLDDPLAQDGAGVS

adenosine A3 receptor, sequence (P0DMS8 whole entry): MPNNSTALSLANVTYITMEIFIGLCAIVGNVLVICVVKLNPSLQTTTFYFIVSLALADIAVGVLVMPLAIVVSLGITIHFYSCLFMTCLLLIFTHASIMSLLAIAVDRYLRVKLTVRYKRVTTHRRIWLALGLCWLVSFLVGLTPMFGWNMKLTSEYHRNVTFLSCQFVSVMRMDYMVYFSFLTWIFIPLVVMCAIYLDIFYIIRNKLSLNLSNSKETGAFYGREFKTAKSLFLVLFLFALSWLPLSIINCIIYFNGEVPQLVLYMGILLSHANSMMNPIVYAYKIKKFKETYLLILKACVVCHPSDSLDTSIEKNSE
adenosine A1 receptor, sequence (P30542 whole entry): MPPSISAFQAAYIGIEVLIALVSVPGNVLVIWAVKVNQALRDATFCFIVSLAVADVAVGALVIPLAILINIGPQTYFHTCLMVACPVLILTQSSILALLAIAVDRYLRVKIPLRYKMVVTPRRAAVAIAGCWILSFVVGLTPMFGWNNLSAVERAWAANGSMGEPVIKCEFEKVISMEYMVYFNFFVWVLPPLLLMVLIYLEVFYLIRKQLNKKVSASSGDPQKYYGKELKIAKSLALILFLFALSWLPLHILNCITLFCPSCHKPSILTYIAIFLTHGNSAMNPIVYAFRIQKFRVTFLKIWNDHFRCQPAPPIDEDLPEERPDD

SMILES	IC50 (adenosine A1 receptor)	IC50 (adenosine A3 receptor)	Ratio (adenosine A2B receptor)	IC50 (adenosine A2B receptor)	IC50 (adenosine A2A receptor)
C[C@H](Nc1nc(C(=O)NCCO)c2sccc2n1)c1cncc(F)c1 [Example Z275, (S)-2-((1-(5-Fluoropyridin-3-yl)ethyl)amino)-N-(2-hydroxyethyl)thieno[3,2-d]pyrimidine-4-carboxamide]	> 500 nM	> 500 nM	24.38	< 10 nM	100 to 500 nM
Cc1cc2nc(N[C@@H](C)c3cncc(F)c3)nc(C(=O)N3CCC3)c2s1 [Example Z276, (S)-Azetidin-1-yl(2-((1-(5-fluoropyridin-3-yl)ethyl)amino)-6-methylthieno[3,2-d]pyrimidin-4-yl)methanone]	50 to 100 nM	50 to 100 nM	92.47	< 10 nM	50 to 100 nM
Cc1cc2nc(N[C@@H](C)c3cncc(F)c3)nc(C(=O)N3CCCC3)c2s1 [Example Z279, (S)-(2-((1-(5-Fluoropyridin-3-yl)ethyl)amino)-6-methylthieno[3,2-d]pyrimidin-4-yl)(pyrrolidin-1-yl)methanone]	50 to 100 nM	50 to 100 nM	86.81	< 10 nM	50 to 100 nM
Cc1cc2nc(N[C@@H](C)c3cncc(F)c3)nc(C(=O)NCC(F)(F)F)c2s1 [Example Z280, (S)-2-((1-(5-Fluoropyridin-3-yl)ethyl)amino)-6-methyl-N-(2,2,2-trifluoroethyl)thieno[3,2-d]pyrimidine-4-carboxamide]	10 to 50 nM	50 to 100 nM	24.55	< 10 nM	10 to 50 nM
Cc1cc2nc(N[C@@H](C)c3ccccn3)nc(C(=O)N3CCC3)c2s1 [Example Z284, (S)-Azetidin-1-yl(6-methyl-2-((1-(pyridin-2-yl)ethyl)amino)thieno[3,2-d]pyrimidin-4-yl)methanone]	50 to 100 nM	50 to 100 nM	56.67	< 10 nM	50 to 100 nM
Cc1cc2nc(N[C@@H](C)c3ccccn3)nc(C(=O)N3CC(O)C3)c2s1 [Example Z285, (S)-(3-Hydroxyazetidin-1-yl)(6-methyl-2-((1-(pyridin-2-yl)ethyl)amino)thieno[3,2-d]pyrimidin-4-yl)methanone]	50 to 100 nM	50 to 100 nM	51.08	< 10 nM	100 to 500 nM
COC1CN(C(=O)c2nc(N[C@@H](C)c3cccnc3)nc3cc(C)sc23)C1 [Example Z286, (S)-(3-Methoxyazetidin-1-yl)(6-methyl-2-((1-(pyridin-3-yl)ethyl)amino)thieno[3,2-d]pyrimidin-4-yl)methanone]	> 500 nM	> 500 nM	26.11	< 10 nM	50 to 100 nM
Cc1cc2nc(N[C@@H](C)c3ccccn3)nc(C(=O)NC[C@H](C)O)c2s1 [Example Z287, N—((S)-2-Hydroxypropyl)-6-methyl-2-(((S)-1-(pyridin-2-yl)ethyl)amino)thieno[3,2-d]pyrimidine-4-carboxamide]	> 500 nM	50 to 100 nM	23.71	10 to 50 nM	100 to 500 nM
Cc1cc2nc(N[C@@H](C)c3ccccn3)nc(C(=O)NC[C@@H](C)O)c2s1 [Example Z288, N—((R)-2-Hydroxypropyl)-6-methyl-2-(((S)-1-(pyridin-2-yl)ethyl)amino)thieno[3,2-d]pyrimidine-4-carboxamide]	> 500 nM	50 to 100 nM	35.51	< 10 nM	100 to 500 nM
C[C@H](Nc1nc(C(=O)NCCO)c2sccc2n1)c1cncc(Cl)c1 [Example Z291, (S)-2-((1-(5-Chloropyridin-3-yl)ethyl)amino)-N-(2-hydroxyethyl)thieno[3,2-d]pyrimidine-4-carboxamide]	50 to 100 nM	> 500 nM	50.12	10 to 50 nM	> 500 nM
C[C@H](O)CNC(=O)c1nc(N[C@@H](C)c2cncc(Cl)c2)nc2ccsc12 [Example Z292, 2-(((S)-1-(5-Chloropyridin-3-yl)ethyl)amino)-N—((S)-2-hydroxypropyl)thieno[3,2-d]pyrimidine-4-carboxamide]	50 to 100 nM	50 to 100 nM	60.59	10 to 50 nM	> 500 nM
C[C@H](Nc1nc(C(=O)NC[C@@H](C)O)c2sccc2n1)c1cncc(Cl)c1 [Example Z293, 2-(((S)-1-(5-Chloropyridin-3-yl)ethyl)amino)-N—((R)-2-hydroxypropyl)thieno[3,2-d]pyrimidine-4-carboxamide]	50 to 100 nM	50 to 100 nM	41.78	< 10 nM	100 to 500 nM
C[C@H](Nc1nc(C(=O)N2CC[C@@H](CO)C2)c2sccc2n1)c1cncc(F)c1 [Example Z295, (2-(((S)-1-(5-Fluoropyridin-3-yl)ethyl)amino)thieno[3,2-d]pyrimidin-4-yl)((R)-3-(hydroxymethyl)pyrrolidin-1-yl)methanone]	> 500 nM	> 500 nM	68.33	< 10 nM	100 to 500 nM
Cc1cc2nc(N[C@@H](C)c3cccnc3)nc(C(=O)N3CC(O)C3)c2s1 [Example Z299, (S)-(3-Hydroxyazetidin-1-yl)(6-methyl-2-((1-(pyridin-3-yl)ethyl)amino)thieno[3,2-d]pyrimidin-4-yl)methanone]	> 500 nM	> 500 nM	39.68	< 10 nM	100 to 500 nM
COC1CN(C(=O)c2nc(N[C@@H](C)c3ccccn3)nc3cc(C)sc23)C1 [Example Z300, (S)-(3-Methoxyazetidin-1-yl)(6-methyl-2-((1-(pyridin-2-yl)ethyl)amino)thieno[3,2-d]pyrimidin-4-yl)methanone]	50 to 100 nM	50 to 100 nM	21.89	< 10 nM	10 to 50 nM
CO[C@@H]1CCN(C(=O)c2nc(N[C@@H](C)c3cncc(F)c3)nc3cc(C)sc23)C1 [Example Z302, (2-(((S)-1-(5-Fluoropyridin-3-yl)ethyl)amino)-6-methylthieno[3,2-d]pyrimidin-4-yl)((R)-3-methoxypyrrolidin-1-yl)methanone]	> 500 nM	50 to 100 nM	35.54	< 10 nM	50 to 100 nM
C[C@H](Nc1nc(C(=O)N[C@H]2C[C@@H](O)C2)c2sccc2n1)c1cncc(Cl)c1 [Example Z305, 2-(((S)-1-(5-Chloropyridin-3-yl)ethyl)amino)-N-((1s,3R)-3-hydroxycyclobutyl)thieno[3,2-d]pyrimidine-4-carboxamide]	> 500 nM	> 500 nM	38.51	< 10 nM	50 to 100 nM
Cc1cc2nc(N[C@@H](C)c3cncc(F)c3)nc(C(=O)NCC(C)(C)O)c2s1 [Example Z308, (S)-2-((1-(5-Fluoropyridin-3-yl)ethyl)amino)-N-(2-hydroxy-2-methylpropyl)-6-methylthieno[3,2-d]pyrimidine-4-carboxamide]	50 to 100 nM	50 to 100 nM	29.96	< 10 nM	50 to 100 nM
Cc1cc2nc(N[C@@H](C)c3cncc(F)c3)nc(C(=O)N3CC[C@H](CO)C3)c2s1 [Example Z309, (2-(((S)-1-(5-Fluoropyridin-3-yl)ethyl)amino)-6-methylthieno[3,2-d]pyrimidin-4-yl)((S)-3-(hydroxymethyl)pyrrolidin-1-yl)methanone]	> 500 nM	> 500 nM	37.14	< 10 nM	50 to 100 nM
Cc1cc2nc(N[C@@H](C)c3cncc(F)c3)nc(C(=O)N3CC[C@@H](CO)C3)c2s1 [Example Z310, (2-(((S)-1-(5-Fluoropyridin-3-yl)ethyl)amino)-6-methylthieno[3,2-d]pyrimidin-4-yl)((R)-3-(hydroxymethyl)pyrrolidin-1-yl)methanone]	> 500 nM	> 500 nM	71.73	< 10 nM	100 to 500 nM
CO[C@H]1CCN(C(=O)c2nc(N[C@@H](C)c3ccccn3)nc3cc(C)sc23)C1 [Example Z311, ((S)-3-Methoxypyrrolidin-1-yl)(6-methyl-2-(((S)-1-(pyridin-2-yl)ethyl)amino)thieno[3,2-d]pyrimidin-4-yl)methanone]	> 500 nM	50 to 100 nM	3.82	10 to 50 nM	50 to 100 nM
C[C@H](Nc1nc(C(=O)N[C@@H]2CCN(C(=O)OC(C)(C)C)C2)c2sccc2n1)c1ccccn1 [Example Z326, tert-Butyl (R)-3-(2-(((S)-1-(pyridin-2-yl)ethyl)amino)thieno[3,2-d]pyrimidine-4-carboxamido)pyrrolidine-1-carboxylate]	> 500 nM	10 to 50 nM	0.54	50 to 100 nM	10 to 50 nM
C[C@H](Nc1nc(C(=O)N2CCCC2)c2sc(C(F)(F)F)cc2n1)c1cccnc1 [Example Z327, (S)-(2-((1-(Pyridin-3-yl)ethyl)amino)-6-(trifluoromethyl)thieno[3,2-d]pyrimidin-4-yl)(pyrrolidin-1-yl)methanone]	> 500 nM	> 500 nM	143.99	< 10 nM	> 500 nM
Cc1cc2nc(N[C@@H](C)c3cccnc3)nc(C(=O)NC[C@H](C)O)c2s1 [Example Z328, N—((S)-2-Hydroxypropyl)-6-methyl-2-(((S)-1-(pyridin-3-yl)ethyl)amino)thieno[3,2-d]pyrimidine-4-carboxamide]	> 500 nM	50 to 100 nM	107.75	< 10 nM	100 to 500 nM

— patent publication US11254686B1 (Corvus Pharmaceuticals, Inc., priority 2017, dated 2022)
